1 molecule from patent publication US12503617B2, “Ink jet ink composition and recording method” (SEIKO EPSON CORPORATION, priority 2022, dated 2025) can be followed below.

The series in a line: Solubility in 100 g of water at 20° C.

The structures appear in SMILES notation.

On to `CC(CO)(CO)CO` [trimethylolethane], for which the solubility result is recorded as “approximately 60 g/100 g of water”.
